Laboratory results: US10004732B2 (Novartis AG, priority 2014, dated 2018)

What was measured:
[1] = molecular target: T1, PI 3-kinase alpha (Homo sapiens, UniProt P42336); assay: Kinase Glo Luminescent Kinase Assay (Kglo), assay A; format: biochemical; settings: read-out: Assay A PI3Kα IC50
Target sequence in this assay (P42336 whole entry): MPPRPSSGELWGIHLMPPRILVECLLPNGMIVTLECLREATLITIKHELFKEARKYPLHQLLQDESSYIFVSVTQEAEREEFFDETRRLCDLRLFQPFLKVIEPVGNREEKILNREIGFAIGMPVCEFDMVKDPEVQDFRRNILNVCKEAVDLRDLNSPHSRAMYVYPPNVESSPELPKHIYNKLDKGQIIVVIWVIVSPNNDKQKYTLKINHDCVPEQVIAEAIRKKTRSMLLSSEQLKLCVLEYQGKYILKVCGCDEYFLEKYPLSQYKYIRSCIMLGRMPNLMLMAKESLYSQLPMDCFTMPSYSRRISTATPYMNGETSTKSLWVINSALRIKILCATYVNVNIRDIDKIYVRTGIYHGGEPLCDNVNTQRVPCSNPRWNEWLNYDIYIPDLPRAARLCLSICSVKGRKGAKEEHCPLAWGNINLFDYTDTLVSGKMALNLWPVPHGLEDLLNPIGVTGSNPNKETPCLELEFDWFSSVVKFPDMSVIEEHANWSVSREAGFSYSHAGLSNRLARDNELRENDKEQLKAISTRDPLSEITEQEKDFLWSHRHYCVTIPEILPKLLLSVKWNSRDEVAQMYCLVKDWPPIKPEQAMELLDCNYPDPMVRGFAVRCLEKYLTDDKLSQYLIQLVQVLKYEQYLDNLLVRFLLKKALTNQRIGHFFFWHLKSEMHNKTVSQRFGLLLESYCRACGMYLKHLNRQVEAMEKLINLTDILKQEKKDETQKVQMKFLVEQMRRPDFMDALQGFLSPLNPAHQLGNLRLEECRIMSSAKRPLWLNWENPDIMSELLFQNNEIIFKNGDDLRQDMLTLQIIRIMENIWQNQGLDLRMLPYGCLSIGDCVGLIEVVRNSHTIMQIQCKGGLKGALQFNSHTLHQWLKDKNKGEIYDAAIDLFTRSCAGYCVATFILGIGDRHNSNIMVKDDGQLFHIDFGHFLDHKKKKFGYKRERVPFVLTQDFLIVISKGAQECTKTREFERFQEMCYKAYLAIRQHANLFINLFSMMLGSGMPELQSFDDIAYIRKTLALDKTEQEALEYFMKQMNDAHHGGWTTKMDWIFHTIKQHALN

[2] = molecular target: T2, PI 3-kinase beta (Homo sapiens, UniProt P42338); assay: Kinase Glo Luminescent Kinase Assay (Kglo), assay B; format: biochemical; settings: read-out: Assay B PI3Kβ IC50
[3] = molecular target: Vps34 (Homo sapiens, UniProt Q8NEB9); assay: Kinase Glo Luminescent Kinase Assay (Kglo), assay C; format: biochemical; settings: read-out: Assay C VPS34 IC50
[4] = molecular target: PI 4-kinase beta (Homo sapiens, UniProt Q9UBF8); assay: Kinase Glo Luminescent Kinase Assay (Kglo), assay D; format: biochemical; settings: read-out: Assay D PI4Kβ IC50
Sequence of PI 4-kinase beta (Q9UBF8 whole entry): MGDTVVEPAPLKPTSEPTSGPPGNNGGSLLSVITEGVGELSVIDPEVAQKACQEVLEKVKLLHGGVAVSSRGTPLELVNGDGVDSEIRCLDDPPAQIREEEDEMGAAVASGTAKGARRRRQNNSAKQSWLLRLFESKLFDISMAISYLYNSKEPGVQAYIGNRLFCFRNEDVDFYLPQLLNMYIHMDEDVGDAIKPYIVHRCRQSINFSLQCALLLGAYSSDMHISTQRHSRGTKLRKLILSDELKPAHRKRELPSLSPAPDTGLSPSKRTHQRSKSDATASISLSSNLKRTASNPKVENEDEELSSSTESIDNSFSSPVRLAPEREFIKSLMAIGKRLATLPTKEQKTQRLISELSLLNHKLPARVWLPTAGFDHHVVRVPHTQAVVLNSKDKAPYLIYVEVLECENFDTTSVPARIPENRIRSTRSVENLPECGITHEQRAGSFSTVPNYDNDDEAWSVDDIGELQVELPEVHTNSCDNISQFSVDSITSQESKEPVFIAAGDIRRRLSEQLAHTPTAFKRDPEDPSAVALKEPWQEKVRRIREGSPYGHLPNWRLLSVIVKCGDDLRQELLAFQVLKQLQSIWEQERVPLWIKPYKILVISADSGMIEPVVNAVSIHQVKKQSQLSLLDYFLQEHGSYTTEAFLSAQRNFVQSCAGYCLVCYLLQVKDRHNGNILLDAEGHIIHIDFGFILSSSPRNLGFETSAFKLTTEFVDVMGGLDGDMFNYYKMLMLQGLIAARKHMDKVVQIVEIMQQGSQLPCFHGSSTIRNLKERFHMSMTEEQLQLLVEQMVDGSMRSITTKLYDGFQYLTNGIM

[5] = molecular target: T3, PI 3-kinase gamma (Homo sapiens, UniProt P48736); assay: TR-FRET Adapta assay, assay E; format: biochemical; settings: read-out: Assay E PI3Kγ IC50
T3 sequence (P48736 whole entry): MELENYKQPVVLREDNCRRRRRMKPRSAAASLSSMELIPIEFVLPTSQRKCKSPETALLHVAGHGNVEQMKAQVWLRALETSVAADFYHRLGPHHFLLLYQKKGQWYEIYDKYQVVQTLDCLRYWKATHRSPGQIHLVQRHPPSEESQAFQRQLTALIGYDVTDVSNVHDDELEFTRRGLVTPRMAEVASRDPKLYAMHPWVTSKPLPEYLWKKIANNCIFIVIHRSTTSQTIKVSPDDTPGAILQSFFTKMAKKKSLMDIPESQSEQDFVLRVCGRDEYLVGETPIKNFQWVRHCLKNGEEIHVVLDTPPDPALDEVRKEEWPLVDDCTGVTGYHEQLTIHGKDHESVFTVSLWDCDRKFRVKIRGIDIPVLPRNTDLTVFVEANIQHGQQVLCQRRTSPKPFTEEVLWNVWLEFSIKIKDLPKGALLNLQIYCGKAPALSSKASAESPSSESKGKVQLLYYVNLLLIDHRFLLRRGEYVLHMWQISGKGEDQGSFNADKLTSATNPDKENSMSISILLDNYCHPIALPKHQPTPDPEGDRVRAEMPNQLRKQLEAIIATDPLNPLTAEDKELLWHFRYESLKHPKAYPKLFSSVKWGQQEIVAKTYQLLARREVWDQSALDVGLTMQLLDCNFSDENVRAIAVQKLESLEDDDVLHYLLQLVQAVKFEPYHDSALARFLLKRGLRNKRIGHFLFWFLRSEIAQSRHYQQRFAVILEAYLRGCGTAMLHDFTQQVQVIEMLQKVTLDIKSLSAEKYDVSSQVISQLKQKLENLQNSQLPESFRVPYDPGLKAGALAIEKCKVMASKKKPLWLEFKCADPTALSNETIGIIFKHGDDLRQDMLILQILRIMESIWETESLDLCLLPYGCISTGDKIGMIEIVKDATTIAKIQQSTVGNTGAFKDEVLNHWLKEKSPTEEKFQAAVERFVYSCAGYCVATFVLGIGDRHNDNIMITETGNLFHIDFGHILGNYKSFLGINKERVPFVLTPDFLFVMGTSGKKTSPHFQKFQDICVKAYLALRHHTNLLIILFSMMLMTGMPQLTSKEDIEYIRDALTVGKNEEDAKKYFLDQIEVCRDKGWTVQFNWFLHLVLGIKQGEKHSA
Protocol: TR-FRET Adapta Assay for PI 3-Kinase Gamma (E), PI 3-Kinase Delta (F)
The TR-FRET Adapta™ Universal Kinase Assay Kit was purchased from Invitrogen Corporation (Carlsbad/CA, USA) (Cat. No. PV5099).
PIK3CD substrate phosphatidylinositol (PI) was obtained from Invitrogen (vesicules consisting of 2 mM phosphatidylinositol (PI) in 50 mM HEPES pH7.5; Cat. No. PV5371). PIK3CG substrate phosphatidylinositol-4,5-bisphosphate (PIP(4,5)2 was obtained from Invitrogen (PIP2:PS large unilamellar vesicules consisting of 1 mM PIP2: 19 mM PS in 50 mM HEPES pH7.5, 3 mM MgCl2, 1 mM EGTA; Cat. No. PV5100).
Time-Resolved Fluorescence Resonance Energy Transfer (TR-FRET) is a technology based on energy transfer between two adjacent dyes, from an excited electron in one dye (the donor) to an electron of an adjacent dye (the acceptor) through resonance, then released as a photon. This energy transfer is detected by an increase in the fluorescence emission of the acceptor, and a decrease in the fluorescence emission of the donor. TR-FRET assays for protein kinases use a long-lifetime lanthanide Terbium or Europium chelates as the donor species which overcome interference from compound autofluorescence or light scatter from precipitated compounds, by introducing a delay after excitation by a flashlamp excitation source. Results are often expressed as a ratio of the intensities of the acceptor and donor fluorophores. The ratiometric nature of such a value corrects for differences in assay volumes between wells, as well as corrects for quenching effects due to colored compounds. The Adapta™ assay can be divided into two phases: a kinase reaction phase and an ADP detection phase. In the kinase reaction phase, all kinase reaction components are added to the well and the reaction is allowed to incubate for a set period of time specific for each kinase. […] In the presence of an inhibitor, the amount of ADP formed by the kinase reaction is reduced, and the resulting intact antibody-tracer interaction maintains a high TR-FRET signal.
50 nL of compound dilutions were dispensed onto white 384-well small volume polystyrene plate. Then 5 μL of either PI 3-kinase gamma or PI 3-kinase delta and lipid substrate (PI or PIP2:PS) followed by 5 μL of ATP (final assay volume 10 μL) are incubated at RT. The standard reaction buffer for the Adapta™ TR-FRET assay contained 10 mM Tris-HCl pH 7.5, 3 mM MgCl2, 50 mM NaCl, 1 mM DTT, 0.05% CHAPS 3-[(3-cholamidopropyl)dimethylammonio]-1-propanesulfonate).
Data are analyzed using Excel fit software or Graphpad Prism. IC50 values were derived by fitting a sigmoidal dose-response curve to a plot of assay readout over inhibitor concentration. All fits were performed with the program XLfit4 (ID Business Solutions, Guildford, UK). […] All fits were performed with the program XLfit4 (ID Business Solutions, Guildford, UK).

[6] = molecular target: mTOR (Homo sapiens, UniProt P42345); assay: Lanthascreen kinase binding assay, assay G; settings: read-out: Assay G mTOR IC50
Protocol: Lanthascreen™ Kinase Binding Assay for mTOR (G)
Binding of an inhibitor to the kinase competes for binding with the tracer, resulting in a loss of FRET.
50 nL of compound dilutions were dispensed onto white 384-well small volume polystyrene plate.

[7] = molecular target: T3, PI 3-kinase gamma; assay: Cellular U937 AKT assay K1 (MSD); format: cell-based; settings: U937 cells, K1 format; read-out: Assay K1 PI3Kγ IC50
[8] = molecular target: T4, PI 3-kinase delta (Homo sapiens, UniProt O00329); assay: TR-FRET Adapta assay, assay F; settings: read-out: Assay F PI3Kδ IC50
Target sequence in this assay (O00329 whole entry): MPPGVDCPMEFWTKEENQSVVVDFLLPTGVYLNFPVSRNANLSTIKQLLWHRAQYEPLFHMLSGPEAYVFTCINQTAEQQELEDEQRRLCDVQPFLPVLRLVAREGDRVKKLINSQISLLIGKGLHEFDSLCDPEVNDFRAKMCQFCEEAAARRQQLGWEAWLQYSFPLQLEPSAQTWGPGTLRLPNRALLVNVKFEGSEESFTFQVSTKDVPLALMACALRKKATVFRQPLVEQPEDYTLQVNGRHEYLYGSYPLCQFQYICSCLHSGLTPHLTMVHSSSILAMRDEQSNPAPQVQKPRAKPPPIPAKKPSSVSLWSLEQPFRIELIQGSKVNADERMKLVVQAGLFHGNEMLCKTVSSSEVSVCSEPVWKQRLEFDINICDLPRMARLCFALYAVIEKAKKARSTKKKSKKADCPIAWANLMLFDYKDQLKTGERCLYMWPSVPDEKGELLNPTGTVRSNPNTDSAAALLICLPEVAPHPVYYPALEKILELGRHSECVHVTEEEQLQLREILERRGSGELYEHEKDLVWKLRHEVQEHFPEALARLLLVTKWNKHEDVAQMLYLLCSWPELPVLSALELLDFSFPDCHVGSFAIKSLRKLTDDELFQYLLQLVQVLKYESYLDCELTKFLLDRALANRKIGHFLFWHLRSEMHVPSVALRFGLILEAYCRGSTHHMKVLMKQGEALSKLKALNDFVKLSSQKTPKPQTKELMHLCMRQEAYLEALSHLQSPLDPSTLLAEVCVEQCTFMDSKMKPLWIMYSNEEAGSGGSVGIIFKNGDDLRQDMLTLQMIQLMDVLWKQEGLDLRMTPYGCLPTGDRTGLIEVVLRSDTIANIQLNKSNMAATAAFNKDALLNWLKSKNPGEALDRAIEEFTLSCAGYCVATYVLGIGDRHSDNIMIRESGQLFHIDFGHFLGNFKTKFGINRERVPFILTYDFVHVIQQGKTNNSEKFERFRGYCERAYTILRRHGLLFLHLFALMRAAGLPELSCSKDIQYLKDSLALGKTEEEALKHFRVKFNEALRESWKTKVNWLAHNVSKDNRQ
Target sequence in this assay (P27986 461-568 partner): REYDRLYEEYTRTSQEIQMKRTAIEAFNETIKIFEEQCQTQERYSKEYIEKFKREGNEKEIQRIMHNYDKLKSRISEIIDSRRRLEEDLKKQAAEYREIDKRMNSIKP

[9] = Microsomal clearance assay (M); settings: intrinsic clearance in rat liver microsomes
Protocol: The experiments were performed in 96-well glass plates at 37° C. on an automated Tecan EVO platform. Test compounds at a concentration of 10 mM in pure DMSO were diluted 1:1000 in water to 10 μM. […] Reactions were initiated by the addition of 150 μL of a cofactor solution containing 2 mM NADPH.

[10] = molecular target: T2, PI 3-kinase beta; assay: Cellular assay I1, p-Akt (S473) in Rat-1 cells, Surefire format; format: cell-based; settings: non-asterisked data: version I1 (Surefire format), Rat-1 cells; read-out: Assay I PI3Kβ IC50
[11] = molecular target: T4, PI 3-kinase delta; assay: Cellular assay J1, p-Akt (S473) in Rat-1 cells, Surefire format; format: cell-based; settings: non-asterisked data: version J1 (Surefire format), Rat-1 cells; read-out: Assay J PI3Kδ IC50
Target sequence in this assay (O00329 whole entry): as the sequence (O00329 whole entry) above
Target sequence in this assay (Q63787 whole entry partner): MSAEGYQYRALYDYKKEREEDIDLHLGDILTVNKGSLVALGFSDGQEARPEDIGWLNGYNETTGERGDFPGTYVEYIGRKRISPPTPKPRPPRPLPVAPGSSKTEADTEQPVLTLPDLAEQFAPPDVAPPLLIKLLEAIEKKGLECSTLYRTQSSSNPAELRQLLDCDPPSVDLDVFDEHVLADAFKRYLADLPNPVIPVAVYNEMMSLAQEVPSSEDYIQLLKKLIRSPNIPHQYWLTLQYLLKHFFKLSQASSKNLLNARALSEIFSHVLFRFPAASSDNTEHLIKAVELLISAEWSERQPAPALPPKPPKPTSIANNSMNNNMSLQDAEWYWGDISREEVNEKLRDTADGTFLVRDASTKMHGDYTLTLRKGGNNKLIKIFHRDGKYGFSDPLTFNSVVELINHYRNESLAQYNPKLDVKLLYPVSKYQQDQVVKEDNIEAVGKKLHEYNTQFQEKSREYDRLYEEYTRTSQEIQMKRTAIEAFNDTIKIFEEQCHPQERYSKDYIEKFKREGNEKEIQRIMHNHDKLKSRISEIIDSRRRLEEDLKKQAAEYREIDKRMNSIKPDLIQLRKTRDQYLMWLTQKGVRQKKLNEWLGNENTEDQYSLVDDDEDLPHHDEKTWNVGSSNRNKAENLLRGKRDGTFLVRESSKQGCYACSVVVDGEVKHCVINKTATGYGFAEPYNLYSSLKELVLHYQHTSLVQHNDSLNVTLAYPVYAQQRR

[12] = molecular target: T1, PI 3-kinase alpha; assay: Cellular assay H1, p-Akt (S473) in Rat-1 cells, Surefire format; format: cell-based; settings: non-asterisked data: version H1 (Surefire format), Rat-1 cells; read-out: Assay H PI3Kα IC50
Target sequence in this assay (P42336 whole entry): as the sequence (P42336 whole entry) above
Target sequence in this assay (Q63787 whole entry partner): as the sequence (Q63787 whole entry partner) above

SMILES	IC50 [1] [nM]	IC50 [2] [nM]	IC50 [3] [nM]	IC50 [4] [nM]	IC50 [5] [nM]	IC50 [6] [nM]	IC50 [7] [nM]	IC50 [8] [nM]	Assay M RLM CI(int) [9] [µL/min/mg]	IC50 [10] [nM]	IC50 [11] [nM]	IC50 [12] [nM]
Cc1ccc(S(=O)(=O)NC[C@H]2C[C@@H](O)C2)cc1-c1cnc(N)c(-c2cc(C3CC3)no2)n1 [Example 100, 3-(5-Amino-6-(3-cyclopropylisoxazol-5-yl)pyrazin-2-yl)-N-(((1s,3s)-3-hydroxycyclobutyl)methyl)-4-methylbenzenesulfonamide]	500	5300	7200	5750	3	> 9550	74	680	95	–	–	–
Cc1ccc(S(=O)(=O)NOCCN(C)C)cc1-c1cnc(N)c(-n2cncn2)n1 [Example 112.2, 3-(5-Amino-6-(1H-1,2,4-triazol-1-yl)pyrazin-2-yl)-N-(2-(dimethylamino)ethoxy)-4-methylbenzenesulfonamide]	860	1300	> 10000	5400	104	> 10000	137	1200	–	> 10000	> 10000	–
Cc1ccc(S(=O)(=O)NCC2COC2)cc1-c1cnc(N)c(-n2cncn2)n1 [Example 131, 3-(5-Amino-6-(1H-1,2,4-triazol-1-yl)pyrazin-2-yl)-4-methyl-N-(oxetan-3-ylmethyl)benzenesulfonamide]	370	2450	4300	4950	42	3700	493	760	42	–	–	–
Cc1csc(-c2nc(-c3cc(S(=O)(=O)NCCC(C)(C)O)ccc3C)cnc2N)c1 [Example 119.43]	250	1780	> 9100	> 9100	54	3370	60	100	136	–	–	–
Cc1ccc(S(=O)(=O)NCCC(C)(C)O)cc1-c1cnc(N)c(-c2cccs2)n1 [Example 119.45]	150	3600	> 9100	2460	12	8690	85	100	188	–	–	–
Cc1cc(-c2nc(-c3cc(S(=O)(=O)NCCC(C)(C)O)ccc3C)cnc2N)n(C)n1 [Example 119.36]	220	4410	> 9100	> 9100	34	> 9100	1280	170	48	–	–	–
Cc1ccc(S(=O)(=O)NCCC(C)(C)O)cc1-c1cnc(N)c(-c2cc(C3CC3)no2)n1 [Example 78, 3-(5-Amino-6-(3-cyclopropylisoxazol-5-yl)pyrazin-2-yl)-N-(3-hydroxy-3-methylbutyl)-4-methylbenzenesulfonamide]	240	2200	> 9550	1550	13	2350	66	180	152	–	–	–
Cc1nc(-c2nc(-c3cc(S(=O)(=O)NCC(C)(C)O)ccc3C)cnc2N)c(C)s1 [Example 40, 3-(5-Amino-6-(2,5-dimethylthiazol-4-yl)pyrazin-2-yl)-N-(2-hydroxy-2-methylpropyl)-4-methylbenzenesulfonamide]	760	1400	> 10000	> 10000	36	3800	40	840	92	–	–	–
Cc1noc(-c2nc(-c3cc(S(=O)(=O)NC[C@H]4C[C@@H](O)C4)ccc3C)cnc2N)n1 [Example 96, 3-(5-Amino-6-(3-methyl-1,2,4-oxadiazol-5-yl)pyrazin-2-yl)-N-(((1s,3s)-3-hydroxycyclobutyl)methyl)-4-methylbenzenesulfonamide]	550	3350	–	> 9550	92	8800	276	550	62	–	–	–

The next lines start with the values.

IC50 [1] [nM]	IC50 [2] [nM]	IC50 [3] [nM]	IC50 [4] [nM]	IC50 [5] [nM]	IC50 [6] [nM]	IC50 [7] [nM]	IC50 [8] [nM]	Assay M RLM CI(int) [9] [µL/min/mg]	IC50 [10] [nM]	IC50 [11] [nM]	IC50 [12] [nM]	SMILES
270	970	> 10000	8300	40	3900	156	500	–	–	–	–	Cc1ccc(S(=O)(=O)NC[C@@](C)(O)C(F)(F)F)cc1-c1cnc(N)c(-n2cncn2)n1 [Example 127.22]
130	650	> 10000	4400	31	3300	66	340	493	–	–	–	Cc1ccc(S(=O)(=O)NCC2(CO)CCCC2)cc1-c1cnc(N)c(-n2cncn2)n1 [Example 127.25]
450	5100	> 10000	8400	160	> 10000	290	3500	–	–	–	–	Cc1ccc(S(=O)(=O)NCCF)cc1-c1cnc(N)c(-n2cncn2)n1 [Example 127.28]
200	790	> 10000	1800	27	4700	168	320	–	–	–	–	Cc1ccc(S(=O)(=O)NCCC(C)(O)C(F)(F)F)cc1-c1cnc(N)c(-n2cncn2)n1 (centres unmarked) [Example 127.24]
890	1200	> 10000	7400	38	> 10000	392	1100	–	–	–	–	Cc1ccc(S(=O)(=O)NCC2CCCCO2)cc1-c1cnc(N)c(-n2cncn2)n1 (centres unmarked) [Example 127.17]
380	3200	> 10000	3400	160	> 10000	371	> 10000	–	–	–	–	Cc1ccc(S(=O)(=O)N2CCC(F)(F)C2)cc1-c1cnc(N)c(-n2cncn2)n1 [Example 127.3]
1800	4600	> 10000	> 10000	140	6700	1880	1200	–	–	–	–	Cc1ccc(S(=O)(=O)NCC(C)(C)N2CCOCC2)cc1-c1cnc(N)c(-n2cncn2)n1 [Example 127.32]
180	580	> 10000	2900	23	–	82	360	–	–	–	–	Cc1ccc(S(=O)(=O)NC[C@](C)(O)C(F)(F)F)cc1-c1cnc(N)c(-n2cncn2)n1 [Example 127.23]
280	530	> 10000	3800	26	6100	210	1100	–	–	–	–	Cc1ccc(S(=O)(=O)NC[C@@H](C)O)cc1-c1cnc(N)c(-n2cncn2)n1 [Example 127.13]
360	1900	> 10000	> 10000	98	3000	320	1200	–	–	–	–	Cc1ccc(S(=O)(=O)N[C@H]2CCOC2)cc1-c1cnc(N)c(-n2cncn2)n1 [Example 127.21]
300	> 9100	> 9100	> 9100	28	> 9100	144	260	170	> 10000	5860	–	Cc1cc(-c2nc(-c3cc(S(=O)(=O)NCCC(C)(O)C(F)(F)F)ccc3C)cnc2N)ccn1 (centres unmarked) [Example 129.13, 3-(5-amino-6-(2-methylpyridin-4-yl)pyrazin-2-yl)-4-methyl-N-(4,4,4-trifluoro-3-hydroxy-3-methylbutyl)benzenesulfonamide]
490	7100	> 9100	> 9100	16	> 9100	–	340	139	> 10000	6840	7600	Cc1cc(-c2nc(-c3cc(S(=O)(=O)NCCCCCO)ccc3C)cnc2N)ccn1 [Example 129.3, 3-(5-amino-6-(2-methylpyridin-4-yl)pyrazin-2-yl)-N-(5-hydroxypentyl)-4-methylbenzenesulfonamide]
240	1800	> 10000	3900	124	> 10000	131	640	–	–	–	–	Cc1ccc(S(=O)(=O)NCCCF)cc1-c1cnc(N)c(-n2cncn2)n1 [Example 127.29]
